# Read-outs that look alike come from different tables or passages of the source.
# Key:
# [1] = test system: model of myocardial ischemia reperfusion injury; assay: Model of myocardial ischemia-reperfusion injury in dogs; type: in vivo; details: 3 mg/kg into the femoral vein 10 minutes before 20 minutes coronary occlusion, then reperfusion
# Procedure: In order to confirm the efficacy of compounds of the present invention on myocardial infarction and arrhythmia caused by myocardial infarction, a pharmacological study was conducted using a model of myocardial ischemia reperfusion injury in dogs for the compounds used in Example 1.
# Dogs having body weights of approximately 10 kg were anesthetized with pentobarbital (trade name) (30 mg/ml/kg) followed by shaving the surgical site after starting artificial respiration. The femoral vein and femoral artery were separated followed by cannulation. The femoral vein was used as the administration route for the test substances, while the femoral artery was used to measure blood pressure.
# Next, after opening the left chest, making an incision in the pericardium and exposing the left ventricle, the left coronary artery was separated. A silk suture was passed through the coronary artery to occlude, followed by the attachment of an electromagnetic flow meter probe for measuring blood flow.
# In addition, a pair of ultrasound crystal probes was fixed in position to measure changes in ventricular wall length as a indicator of myocardial contractile force, and indwelling needle was installed for measuring left intraventricular pressure. Compounds of the present invention were administered into the femoral vein at 3 mg/kg (15% physiological saline solution) followed 10 minutes later by occluding the coronary artery for 20 minutes, and subsequently reperfusing the coronary artery. Myocardial contraction following ischemia-reperfusion was compared for each group based on a value of 100 for myocardial contraction prior to ischemic reperfusion. In addition, comparisons were also made with a solvent control group administered only physiological saline.
# [2] = test system: model of myocardial ischemia-reperfusion injury; assay: Model of myocardial ischemia-reperfusion injury in rats; type: in vivo; details: 3 mg/kg i.v. 5 minutes before 5 minutes coronary ligation, 8 rats per group; for Incidence of Ventricular Fibrillation (%) / Incidence of Ventricular Tachycardia (%): monitored 5 minutes after reperfusion; for Mortality Rate (%): then reperfusion
# [3] = test system: ouabain-induced arrhythmia model; assay: Ouabain-induced arrhythmia model in guinea pigs; type: in vivo, guinea pigs (Hartley strain); details: dose 3 mg/kg i.v. immediately before ouabain infusion 3 μg/0.1 ml/min
# Text: After guinea pigs (Hartley strain, age 6 weeks) were anesthetized with urethane, induction electrodes were attached to the hind limbs and fore limbs, and standard 2-lead electrocardiograms were monitored with an animal electrocardiogram analysis system (ECG-01, Japan Energy). After confirming that the waveforms of the electrocardiogram and heart rate were within the normal range, an incision was made in the epidermis of the neck followed by inserting a breathing tube into the trachea and cannulating a polyethylene tube into the left external jugular vein and left common carotid artery.
# Immediately after administering a compound of the present invention dissolved in a physiological saline solution into the right external jugular vein, ouabain was continuously infused at 3 μg/0.1 ml/min through the cannulated polyethylene tube into the left external jugular vein using a syringe pump (Atom Syringe Pump 1235 (trade name), Atom Medical Corporation).
# In addition, the polyethylene tube cannulated in the left common carotid artery was connected to a pressure transducer (P23XL, Gould Electronics), and fed to a pressure processor signal conditioner (TA-11, Gould Electronics) to record blood pressure and heart rate on a thermal plate recorder.
# The results were assessed by comparing the dose (μg/kg) of ouabain administered until the appearance of arrhythmia and occurrence of cardiac arrest (arrhythmia is not induced even if a large dose of ouabain is administered if antiarrhythmic effects are high). Furthermore, a solvent dose group (administered only physiological saline in an amount equal to that of the test drug groups), and a positive control group administered a typical antiarrhythmic disopyramide phosphate (physiological saline solution), were also provided.
# guinea pigs = details: guinea pig, in vivo
# [4] = test system: middle cerebral artery occlusion and reperfusion model; assay: Cerebral infarction model: middle cerebral artery occlusion and reperfusion (infarct area, neurological symptoms, motor function); type: in vivo, rats (Crj: Wistar strain); set-up: Improvement of neurological symptoms* (total score): scale not given here; details: rats, average of 10 animals; for Improvement of neurological symptoms* (total score) / Improvement of motor function (time stayed on rotor rod: seconds): single i.v. dose 3 mg/kg; for Improvement of neurological symptoms* (total score): 24 hours after occlusion, total score per Table 4, smaller = greater effect; for Improvement of motor function (time stayed on rotor rod: seconds): rotor rod 14 rotations per minute, maximum 1 minute; for Cerebral infarction reduction rate (%): single intravenous dose 3 mg/kg immediately before reperfusion, vs physiological saline group, bigger = greater effect
# Procedure: In this example, a cerebral infarction model was prepared using rats in which reperfusion injury was induced by ischemia and then reperfusion of the middle cerebral artery using the obturator method. The efficacy of compounds of the present invention following single-dose intravenous administration at dose of 3 mg/kg was evaluated in terms of infarct area, neurological symptoms and motor function.
# In addition, Edaravone (trade name, Mitsubishi Pharma Corporation) was used as a reference compound. The compounds of the present invention were stored in a refrigerator under protection from light, while Edaravone (trade name) was stored at room temperature under protection from light.
# Compounds of present invention: 2 mL of physiological saline was added directly to tube containing 3 mg aliquots of a compound of the present invention to dissolve and prepare solutions having a concentration of 3 mg/2 mL. These samples were prepared at the time of use.
# Edaravone: Since Edaravone is an injectable solution having a concentration of 30 mg/20 mL, the required amounts were divided up and used.
# Rats: Crj: Wistar strain, males, age 7 weeks (Charles River Laboratories Japan, Inc.)
# The test compounds were administered in a single dose into the tail vein using a 1 mL syringe and 27 G injection needle immediately before the reperfusion.
# The rats were anesthetized by intraperitoneal administration of sodium pentobarbital at dose of 40 mg/kg (Nembutal (trade name), Dainippon Pharmaceutical Co., Ltd.), and a middle cerebral artery occlusion and reperfusion model was prepared in accordance with the method of Koizumi et al. (Non-Patent Document 2). Namely, the animals were warmed to 37° C. and held in the dorsal position while breathing spontaneously. A midline cervical incision was made, and then the right external carotid artery and right internal carotid artery were separated without damaging the vagus nerve. The right common carotid artery and right external carotid artery were ligated, and a suture was attached to the origin of the internal carotid artery in preparation for ligation and maintenance of occlusion following insertion of an obturator into the internal carotid artery. Moreover, a small incision was made in the right common carotid artery, an obturator provided with an approximately 17 mm silicon-coated suture was inserted into the internal carotid artery, and the internal carotid artery was ligated. Two hours after ligation, the obturator was removed under unanesthesia to reperfuse. Furthermore, flexion of the contralateral forelimb was confirmed 30 minutes after occlusion of the middle cerebral artery.
# The following neurological symptoms were evaluated 24 hours after occlusion of the middle cerebral artery according to the evaluation method of Petullo et al. (Non-Patent Document 3). Neurological symptoms consisted of flexion of the forelimbs, torso twisting, resistance when pushing on the back of the right or left shoulder (Lateral push), circling, return of the hindlimb to the floor when lifted from the floor (Hindlimb placement), behavior when the head is faced downward on an angle (Inverted angle board) and a locomotor activity test.
# Flexion of the forelimbs: flexion of the forelimbs was observed when the animals were lifted up by the tail.
# Torso twisting: Torso twisting was observed when the animals were lifted up by the tail.
# Lateral push: Resistance was observed when pushing on the back of the right or left shoulder.
# Hindlimb placement: The animals were observed as to whether or not the hindlimb immediately returns to the floor after being lifted from the floor when placed on a horizontal floor.
# locomotor activity: locomotor activity was observed when the animals were placed in a polycarbonate cage.
# The aforementioned tests were scored based on the criteria described in the following documents, followed by calculation of total scores (see Table 4 “Neurological Symptom Evaluation Criteria and Scores”). […]
Compound,Myocardial Contraction (%) (Based on a value of 100% for prior to ischemia-reperfusion) [1],Incidence of Ventricular Fibrillation (%) [2],Incidence of Ventricular Tachycardia (%) [2],Mortality Rate (%) [2],Ouabain (μg/kg) administered until Cardiac arrest [3],Ouabain (μg/kg) administered until appearance of Arrhythmia [3],Occurrence of Arrhythmia (guinea pigs; 3 mg/kg),Occurrence of cardiac arrest (guinea pigs; 3 mg/kg),Occurrence of Arrhythmia (guinea pigs; 10 mg/kg),Occurrence of cardiac arrest (guinea pigs; 10 mg/kg),Improvement of neurological symptoms* (total score) [4],Improvement of motor function (time stayed on rotor rod: seconds) [4],Cerebral infarction reduction rate (%) [4]
COc1ccc(C(=O)[O-])cc1OCC[N+](C)(C)C [Compound 39],74%,12.5%,62.5%,12.5%,229 µg/kg,165 µg/kg,No,No,No,No,6.80,42.4 s,37.8%
C[N+](C)(C)CC(O)Oc1ccc(O)c(C(=O)[O-])c1 (stereo not drawn) [Compound 56],71%,12.5%,62.5%,25.0%,244 µg/kg,172 µg/kg,No,No,No,No,6.55,45.4 s,40.7%
C[N+](C)(C)CCOc1ccc(S(=O)(=O)[O-])cc1 [Compound 60],88%,25.0%,62.5%,0%,243 µg/kg,170 µg/kg,No,No,No,No,6.65,44.2 s,39.0%
C[N+](C)(C)CCOc1ccc(O)c(S(=O)(=O)[O-])c1 [Compound 66],80%,12.5%,62.5%,12.5%,237 µg/kg,168 µg/kg,No,No,No,No,6.35,49.6 s,47.9%
CC[N+](CC)(CC)CCOc1ccc(S(=O)(=O)[O-])c(O)c1 [Compound 71],72%,12.5%,62.5%,0%,239 µg/kg,171 µg/kg,No,No,No,No,6.30,48.8 s,46.3%
C[N+](C)(C)CCCOc1cc(S(=O)(=O)[O-])ccc1O [Compound 77],75%,12.5%,75.0%,12.5%,227 µg/kg,167 µg/kg,No,No,No,No,6.40,49.3 s,47.3%

# From patent publication US7687546B2, “Quaternary ammonium compound, process for producing the same, therapeutic agent for cerebrovascular disorder, and therapeutic agent for heart disease” (Activus Pharma Co., Ltd., priority 2004, dated 2010)
